Assay results taken from patent US8778966B2, “Quinolinone derivatives as PARP and tank inhibitors” (Janssen Pharmaceutica, NV, priority 2007, dated 2014).
Like-named read-outs stand apart in the source and are kept apart here.

Key:
[1] = target: T1, Human PARP-1 enzyme (Homo sapiens, UniProt P09874); assay: In vitro Scintillation Proximity Assay (SPA) for PARP-1 inhibitory activity; assay type: biochemical; conditions: read-out: in vitro SPA assay PARP-1 pIC50 (converted)
T1 construct: purchased Trevigen
Procedure, shortened: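 SPA assay: nicked-DNA-activated PARP-1 (0.1–0.2 μg/ml) ADP-ribosylates biotinylated histones (2 μg/ml) using [3H]-NAD+, 20 min at RT in Tris pH 8/DTT/MgCl2, stopped with 2 mM NAD+. Blank-subtracted cpm expressed as % control; IC50 by linear interpolation, reported as pIC50 (10−5 to 3×10−9 M tested).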

[2] = test system: HCT116 cells; assay: Antiproliferative activity, Alamar Blue assay, HCT116 cells; assay type: cell-based, human; set-up: key to HCT116 antiproliferative activity pIC50: pIC50 = -log IC50 (IC50: conc. reducing growth to 50% of control); conditions: for IC50: Homo sapiens, HCT-116, HCT116 cells, read-out: HCT116 antiproliferative activity pIC50 (converted); for HCT116 antiproliferative activity pIC50: HCT116 cells
Procedure, shortened: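 HCT116 cells seeded, adhered 24 h, then exposed to compound for 4 days; Alamar Blue (resazurin) added for 4 h at 37 °C, fluorescence read at 540/590 nm. Viability as % of untreated control, triplicate wells; IC50 by probit analysis, reported as pIC50.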

T1 sequence (P09874 whole entry): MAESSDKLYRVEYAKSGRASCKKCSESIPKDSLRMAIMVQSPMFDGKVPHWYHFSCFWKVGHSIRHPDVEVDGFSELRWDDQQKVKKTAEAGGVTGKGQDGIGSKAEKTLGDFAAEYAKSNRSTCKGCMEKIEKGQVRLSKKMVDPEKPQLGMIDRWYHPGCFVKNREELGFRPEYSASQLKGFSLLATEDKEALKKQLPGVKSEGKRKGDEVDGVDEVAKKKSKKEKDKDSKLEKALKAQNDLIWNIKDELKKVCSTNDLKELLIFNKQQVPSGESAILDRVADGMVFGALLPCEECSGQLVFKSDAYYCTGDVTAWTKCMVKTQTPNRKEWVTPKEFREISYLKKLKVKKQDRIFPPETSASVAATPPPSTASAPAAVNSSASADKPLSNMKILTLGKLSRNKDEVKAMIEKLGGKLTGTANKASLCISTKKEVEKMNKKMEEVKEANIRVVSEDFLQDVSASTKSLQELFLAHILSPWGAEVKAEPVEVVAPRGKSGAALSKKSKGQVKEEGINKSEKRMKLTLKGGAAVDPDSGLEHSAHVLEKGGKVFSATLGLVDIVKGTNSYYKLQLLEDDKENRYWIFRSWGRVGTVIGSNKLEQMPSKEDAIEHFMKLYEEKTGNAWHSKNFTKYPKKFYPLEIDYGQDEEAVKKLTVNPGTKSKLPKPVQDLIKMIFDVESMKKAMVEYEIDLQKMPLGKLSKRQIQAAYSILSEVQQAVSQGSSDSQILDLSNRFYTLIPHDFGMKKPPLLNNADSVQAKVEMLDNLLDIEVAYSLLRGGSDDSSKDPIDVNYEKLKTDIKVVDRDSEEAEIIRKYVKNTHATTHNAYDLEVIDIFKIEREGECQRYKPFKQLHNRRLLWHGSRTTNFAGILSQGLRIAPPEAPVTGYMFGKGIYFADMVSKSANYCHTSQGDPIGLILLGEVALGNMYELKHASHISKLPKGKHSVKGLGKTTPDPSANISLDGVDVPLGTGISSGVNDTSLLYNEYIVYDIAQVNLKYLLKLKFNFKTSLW

Structure (SMILES): Cc1cc2ccc(C(C)(C#N)Cc3cc4ccccc4[nH]3)cc2[nH]c1=O (centres unmarked) [Compound 234]
- IC50 [1]: 251 nM
- IC50 ([2]; Alamar Blue): 5010 nM

Structure (SMILES): CCc1cc2ccc(C(C)(C#N)Cc3cc(Cl)cc4c3OCOC4)cc2[nH]c1=O (centres unmarked) [Compound 90]
- IC50 [1]: 316 nM
- IC50 [2]: 1000 nM

Structure (SMILES): CCc1cc2ccc(C(C)(C#N)Cc3cccc(COC)c3)cc2[nH]c1=O (centres unmarked) [Compound 8]
- IC50 [1]: 501 nM
- IC50 [2]: 631 nM

Structure (SMILES): CCc1cc2ccc(C(C)(C#N)Cc3cccc(CO)c3)cc2[nH]c1=O (centres unmarked) [Compound 9]
- IC50 [1]: 200 nM
- IC50 [2]: 251 nM

Structure (SMILES): CCc1cc2ccc(C(C)(C#N)Cc3cccc(CNCCN4CCOCC4)c3)cc2[nH]c1=O (centres unmarked) [Compound 61]
- IC50 [1]: 1000 nM
- IC50 [2]: > 10000 nM

Structure (SMILES): CCc1cc2ccc(C(C)(C#N)Cc3cc4c(cc3Cl)OCO4)cc2[nH]c1=O (centres unmarked) [Compound 91]
- IC50 [1]: 1260 nM
- IC50 [2]: 501 nM

Structure (SMILES): CCc1cc2ccc(C(C#N)(Cc3ccccc3)CC3CC3)cc2[nH]c1=O (centres unmarked) [Compound 28]
- IC50 [2]: > 10000 nM

Structure (SMILES): CCc1cc2ccc(C(C)(C#N)Cc3cccc4nnn(C)c34)cc2[nH]c1=O (centres unmarked) [Compound 94]
- IC50 [1]: 126 nM
- IC50 [2]: 6310 nM

Structure (SMILES): CCc1cc2ccc(C(C)(C#N)Cc3cccc(CNCCOC)c3)cc2[nH]c1=O (centres unmarked) [Compound 60]
- IC50 [1]: 794 nM
- IC50 [2]: 6310 nM

Structure (SMILES): CCc1cc2ccc(C(C)(C#N)CCOc3ccc4c(c3)OCO4)cc2[nH]c1=O (centres unmarked) [Compound 279]
- IC50 [1]: 79.4 nM
- IC50 ([2]; Alamar Blue): 1260 nM

Structure (SMILES): CCc1cc2ccc(C(C)(C#N)Cc3ccccc3OC(F)(F)F)cc2[nH]c1=O (centres unmarked) [Compound 102]
- IC50 [1]: 1580 nM
- IC50 [2]: 2000 nM

Structure (SMILES): CCc1cc2ccc([C@](C)(C#N)Cc3nc(OC)cc(OC)n3)cc2[nH]c1=O (single isomer, unassigned) [Compound 52]
- IC50 [1]: 200 nM
- IC50 ([2]; Alamar Blue): 5010 nM

Structure (SMILES): CCc1cc2ccc(C(C)(C#N)Cc3ccncc3)cc2[nH]c1=O (centres unmarked) [Compound 98]
- IC50 [1]: 158 nM
- IC50 [2]: > 10000 nM

Structure (SMILES): CCc1cc2ccc(C(C)(C#N)Cc3cccc(OCCCN4CCN(C)CC4)c3)cc2[nH]c1=O (centres unmarked) [Compound 69]
- IC50 [1]: 794 nM
- IC50 [2]: 7940 nM

Structure (SMILES): CCc1cc2ccc(C(C)(C#N)Cc3ccc4nccnc4c3)cc2[nH]c1=O (centres unmarked) [Compound 87]
- IC50 [1]: 79.4 nM
- IC50 [2]: 1000 nM

Structure (SMILES): Cc1cc2ccc(C(C)(C#N)Cc3ccc(Cl)s3)cc2[nH]c1=O (centres unmarked) [Compound 72]
- IC50 [1]: 1260 nM
- IC50 [2]: 794 nM

Structure (SMILES): CCc1cc2ccc(C(C)(C#N)Cc3cc(OC)cc(OC)c3)cc2[nH]c1=O (centres unmarked) [Compound 332]
- IC50 [1]: 79.4 nM
- IC50 ([2]; Alamar Blue): 100 nM

Structure (SMILES): CCc1cc2ccc(C(C)(C#N)CC3COc4ccccc4O3)cc2[nH]c1=O (single isomer, unassigned) [Compound 47]
- IC50 [1]: 398 nM
- HCT116 antiproliferative activity pIC50 [2]: <5

Structure (SMILES): CCc1cc2ccc(C(C)(C#N)Cc3ccccc3C#N)cc2[nH]c1=O (centres unmarked) [Compound 101]
- IC50 [1]: 50.1 nM
- IC50 [2]: 2510 nM

Structure (SMILES): CCc1cc2ccc(C(C)(C#N)Cc3nn(C)c4ccccc34)cc2[nH]c1=O (centres unmarked) [Compound 95]
- IC50 [1]: 251 nM
- IC50 [2]: 251 nM

Structure (SMILES): CCOP(=O)(OCC)c1cccc(CC(C)(C#N)c2ccc3cc(CC)c(=O)[nH]c3c2)c1 (centres unmarked) [Compound 50]
- IC50 [1]: 2510 nM
- IC50 [2]: 1260 nM

Structure (SMILES): Cc1cc2ccc(C(C)(C#N)Cc3ccc(C(F)(F)F)o3)cc2[nH]c1=O (centres unmarked) [Compound 73]
- IC50 [1]: 2000 nM
- IC50 [2]: 794 nM

Structure (SMILES): Cc1cc2ccc(C(C)(C#N)Cc3ccccc3)cc2[nH]c1=O (centres unmarked) [Compound 76]
- IC50 [1]: 1580 nM
- IC50 [2]: 251 nM

Structure (SMILES): CCc1cc2ccc(C(C)(C#N)Cc3cccc(N4CCCCC4)c3)cc2[nH]c1=O (centres unmarked) [Compound 65]
- IC50 [1]: 1260 nM

Structure (SMILES): CCc1cc2ccc(C(C)(C#N)Cc3ccc(OC)c(C#N)c3)cc2[nH]c1=O (centres unmarked) [Compound 77]
- IC50 [1]: 398 nM
- IC50 [2]: 1000 nM

Structure (SMILES): CCc1cc2ccc(C(C)(C#N)Cc3cccc(CN(C)C)c3)cc2[nH]c1=O (centres unmarked) [Compound 7]
- IC50 [1]: 1000 nM
- IC50 [2]: 2510 nM

Structure (SMILES): CCc1cc2ccc(C(C)(C#N)Cc3ccccc3C(F)(F)F)cc2[nH]c1=O (centres unmarked) [Compound 103]
- IC50 [1]: 1260 nM
- IC50 [2]: 1000 nM

Structure (SMILES): CCc1cc2ccc(C(C)(C#N)Cc3cccc(N4CCN(C)CC4)c3)cc2[nH]c1=O (centres unmarked) [Compound 66]
- IC50 [1]: 1260 nM
- IC50 [2]: 5010 nM

Structure (SMILES): CCc1cc2ccc(C(C)(C#N)Cc3nncn3C)cc2[nH]c1=O (centres unmarked) [Compound 93]
- IC50 [1]: 126 nM
- IC50 [2]: > 10000 nM

Structure (SMILES): CCc1cc2ccc(C(C)(C#N)CCOc3ccccc3C#N)cc2[nH]c1=O (centres unmarked) [Compound 276]
- IC50 [1]: 79.4 nM
- IC50 ([2]; Alamar Blue): 1580 nM

Structure (SMILES): CCc1cc2ccc(C(C)(C#N)Cc3cc(Cl)ccc3Cl)cc2[nH]c1=O (centres unmarked) [Compound 99]
- IC50 [1]: 1000 nM
- IC50 [2]: 79.4 nM

Structure (SMILES): CCc1cc2ccc(C(C)(C#N)Cc3cccc(OCC4CC4)c3)cc2[nH]c1=O (centres unmarked) [Compound 67]
- IC50 [1]: 1000 nM
- IC50 [2]: 1580 nM

Structure (SMILES): CCc1cc2ccc(C(C)(C#N)Cc3cccc(N4CCNCC4)c3)cc2[nH]c1=O (centres unmarked) [Compound 64]
- IC50 [1]: 794 nM
- IC50 [2]: > 10000 nM

Structure (SMILES): CCc1cc2ccc(C(C)(C#N)Cc3c(C)c(C)cc(C)c3C)cc2[nH]c1=O (centres unmarked) [Compound 88]
- IC50 [1]: 1580 nM
- IC50 [2]: > 10000 nM

Structure (SMILES): Cc1cc2ccc(C(C)(C#N)Cc3cc4ccccc4s3)cc2[nH]c1=O (centres unmarked) [Compound 71]
- IC50 [1]: 3160 nM
- IC50 [2]: 5010 nM

Structure (SMILES): Cc1cc2ccc(C(C)(C#N)Cc3cccc4cccnc34)cc2[nH]c1=O (centres unmarked) [Compound 74]
- IC50 [1]: 1000 nM
- IC50 [2]: 501 nM

Structure (SMILES): CCc1cc2ccc(C(C)(C#N)Cc3ccc(F)c(C#N)c3)cc2[nH]c1=O (centres unmarked) [Compound 267]
- IC50 [1]: 79.4 nM
- IC50 ([2]; Alamar Blue): 200 nM

Structure (SMILES): CCc1cc2ccc(C(C)(C#N)CCOc3ccccc3F)cc2[nH]c1=O (centres unmarked) [Compound 278]
- IC50 [1]: 100 nM
- IC50 ([2]; Alamar Blue): 1580 nM

Structure (SMILES): CCc1cc2ccc(C(C)(C#N)Cc3cccc(CNC)c3)cc2[nH]c1=O (centres unmarked) [Compound 59]
- IC50 [1]: 631 nM
- IC50 [2]: 3160 nM

Structure (SMILES): CCc1cc2ccc(C(C)(C#N)Cc3cccc(C(=O)NCCOC)c3)cc2[nH]c1=O (centres unmarked) [Compound 62]
- IC50 [1]: 501 nM
- IC50 [2]: 7940 nM

Structure (SMILES): CCc1cc2ccc(C(C)(C#N)Cc3ccc(C)c(F)c3F)cc2[nH]c1=O (centres unmarked) [Compound 83]
- IC50 [1]: 631 nM
- IC50 [2]: 1000 nM

Structure (SMILES): CCc1cc2ccc(C(C)(C#N)Cc3cc(Cl)ccc3OC)cc2[nH]c1=O (centres unmarked) [Compound 80]
- IC50 [1]: 1000 nM
- IC50 [2]: 501 nM

Structure (SMILES): CCc1cc2ccc(C(C)(C#N)Cc3cc(Cl)cc4c3OCOC4)cc2[nH]c1=O (centres unmarked) [Compound 92]
- IC50 [1]: 251 nM
- HCT116 antiproliferative activity pIC50 [2]: 5.8

Structure (SMILES): CCc1cc2ccc(C(C)(C#N)Cc3c(F)ccc(C)c3F)cc2[nH]c1=O (centres unmarked) [Compound 41]
- IC50 [1]: 1000 nM
- IC50 [2]: 631 nM

Structure (SMILES): CCc1cc2ccc(C(C)(C#N)Cc3nc4ccccc4o3)cc2[nH]c1=O (centres unmarked) [Compound 85]
- IC50 [1]: 126 nM
- IC50 [2]: 316 nM

Structure (SMILES): CCc1cc2ccc(C(C)(C#N)Cc3cccc(Br)c3C)cc2[nH]c1=O (centres unmarked) [Compound 81]
- IC50 [1]: 1260 nM
- IC50 [2]: 316 nM

Structure (SMILES): CCc1cc2ccc(C(C)(C#N)Cc3cccc(C(=O)N(C)C)c3)cc2[nH]c1=O (centres unmarked) [Compound 63]
- IC50 [1]: 1000 nM
- IC50 [2]: 1580 nM

Structure (SMILES): Cc1cc2ccc(C(C)(C#N)Cc3nc4ccccc4s3)cc2[nH]c1=O (centres unmarked) [Compound 75]
- IC50 [1]: 1260 nM
- IC50 [2]: 126 nM

Structure (SMILES): CC(C#N)(Cc1ccccc1)c1ccc2cc(CO)c(=O)[nH]c2c1 (centres unmarked) [Compound 40]
- IC50 [1]: 2510 nM
- IC50 [2]: 7940 nM

Structure (SMILES): CCc1cc2ccc(C(C)(C#N)Cc3c(C)cccc3C)cc2[nH]c1=O (centres unmarked) [Compound 84]
- IC50 [1]: 1260 nM
- IC50 [2]: 2000 nM

Structure (SMILES): CCc1cc2ccc(C(C)(C#N)Cc3cn4ccccc4n3)cc2[nH]c1=O (centres unmarked) [Compound 96]
- IC50 [1]: 126 nM
- IC50 [2]: 5010 nM

Structure (SMILES): CCc1cc2ccc(C(C)(C#N)Cc3csc(C)n3)cc2[nH]c1=O (centres unmarked) [Compound 86]
- IC50 [1]: 501 nM
- IC50 [2]: 5010 nM

Structure (SMILES): CCc1cc2ccc(C(C)(C#N)Cc3cccc(C#C[Si](C)(C)C)c3)cc2[nH]c1=O (centres unmarked) [Compound 1]
- IC50 [1]: 398 nM
- IC50 ([2]; Alamar Blue): 200 nM

Structure (SMILES): Cc1cc2ccc(C(C)(C#N)Cc3noc(-c4cccc(C(F)(F)F)c4)n3)cc2[nH]c1=O (centres unmarked) [Compound 70]
- IC50 [1]: 3980 nM
- IC50 [2]: 631 nM

Structure (SMILES): CCc1cc2ccc(C(C)(C#N)Cc3ccccc3)cc2[nH]c1=O (centres unmarked) [Compound 44]
- IC50 [1]: 316 nM
